In PubChem BioAssay (NCI):
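Grown in 96-well plates, cells were treated for 48 hours with each compound at five concentrations. Insufficient inhibition: endpoint recorded as highest concentration tested. TGI is the concentration that stops growth completely.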

Tests used:
Assay in all cases: NCI-60 cell line screen, 48 h
HL-60(TB) leukemia = test system: HL-60(TB) leukemia
COLO 205 colon = test system: COLO 205 colon
M19-MEL melanoma = test system: M19-MEL melanoma
A549 NSCLC = test system: A549 NSCLC
HOP-62 NSCLC = test system: HOP-62 NSCLC
SNB-19 CNS = test system: SNB-19 CNS
NCI-H522 lung = test system: NCI-H522 lung
SN12C renal = test system: SN12C renal
SR leukemia = test system: SR leukemia
ACHN renal = test system: ACHN renal
DMS 114 small cell lung = test system: DMS 114 small cell lung
SNB-75 CNS = test system: SNB-75 CNS
CAKI-1 renal = test system: CAKI-1 renal
NCI-H460 lung = test system: NCI-H460 lung
SK-MEL-28 melanoma = test system: SK-MEL-28 melanoma
OVCAR-3 ovarian = test system: OVCAR-3 ovarian
RPMI-8226 leukemia = test system: RPMI-8226 leukemia
HT29 colon = test system: HT29 colon
SW-620 colon = test system: SW-620 colon
U251 CNS = test system: U251 CNS
HOP-92 NSCLC = test system: HOP-92 NSCLC
UACC-62 melanoma = test system: UACC-62 melanoma
SK-OV-3 ovarian = test system: SK-OV-3 ovarian
M14 melanoma = test system: M14 melanoma
UO-31 renal = test system: UO-31 renal
SK-MEL-2 melanoma = test system: SK-MEL-2 melanoma
SF-295 CNS = test system: SF-295 CNS
NCI-H226 lung = test system: NCI-H226 lung
MALME-3M melanoma = test system: MALME-3M melanoma
SF-268 CNS = test system: SF-268 CNS
UACC-257 melanoma = test system: UACC-257 melanoma
786-0 renal = test system: 786-0 renal
HCC-2998 colon = test system: HCC-2998 colon
EKVX NSCLC = test system: EKVX NSCLC
XF 498 CNS = test system: XF 498 CNS
IGROV1 ovarian = test system: IGROV1 ovarian
MOLT-4 leukemia = test system: MOLT-4 leukemia
K-562 leukemia = test system: K-562 leukemia
SK-MEL-5 melanoma = test system: SK-MEL-5 melanoma
NCI-H23 lung = test system: NCI-H23 lung
HCT-116 colon = test system: HCT-116 colon
A498 renal = test system: A498 renal
LXFL 529 NSCLC = test system: LXFL 529 NSCLC
SNB-78 CNS = test system: SNB-78 CNS
OVCAR-8 ovarian = test system: OVCAR-8 ovarian
DLD-1 colon = test system: DLD-1 colon
TK-10 renal = test system: TK-10 renal
KM20L2 colon = test system: KM20L2 colon
CCRF-CEM leukemia = test system: CCRF-CEM leukemia
OVCAR-4 ovarian = test system: OVCAR-4 ovarian
KM12 colon = test system: KM12 colon
OVCAR-5 ovarian = test system: OVCAR-5 ovarian
HOP-18 NSCLC = test system: HOP-18 NSCLC
HCT-15 colon = test system: HCT-15 colon
SF-539 CNS = test system: SF-539 CNS
DMS 273 small cell lung = test system: DMS 273 small cell lung
LOX IMVI melanoma = test system: LOX IMVI melanoma
RXF 393 renal = test system: RXF 393 renal

For `Cc1cccc2c1N(C(=O)/C=C\C(=O)O)C(c1c(C)[nH]c3ccccc13)C2` (stereo unspecified), the TGI (HL-60(TB) leukemia) was 51.3 µM, the TGI (COLO 205 colon) was over 10 µM and the TGI (M19-MEL melanoma) was 53.1 µM. The TGI (A549 NSCLC) was over 100 µM, the TGI (HOP-62 NSCLC) was over 100 µM and the TGI (SNB-19 CNS) was over 100 µM. The TGI (NCI-H522 lung) was 46.3 µM, the TGI (SN12C renal) was over 100 µM and the TGI (SR leukemia) was over 100 µM. It also gave a TGI (ACHN renal) of over 100 µM, a TGI (DMS 114 small cell lung) of 42.2 µM and a TGI (SNB-75 CNS) of over 10 µM. The TGI (CAKI-1 renal) was over 100 µM, the TGI (NCI-H460 lung) was over 100 µM and the TGI (SK-MEL-28 melanoma) was 53.3 µM. The TGI (OVCAR-3 ovarian) was over 10 µM, the TGI (RPMI-8226 leukemia) was over 100 µM and the TGI (HT29 colon) was over 100 µM. For the same compound, the TGI (SW-620 colon) was 79.3 µM, the TGI (U251 CNS) was over 10 µM and the TGI (HOP-92 NSCLC) was 82.4 µM. It also gave a TGI (UACC-62 melanoma) of 41.8 µM, a TGI (SK-OV-3 ovarian) of over 100 µM and a TGI (M14 melanoma) of over 100 µM. For the same compound, the TGI (UO-31 renal) was over 100 µM, the TGI (SK-MEL-2 melanoma) was 36 µM and the TGI (SF-295 CNS) was over 100 µM. The TGI (NCI-H226 lung) was over 100 µM, the TGI (MALME-3M melanoma) was 48.1 µM and the TGI (SF-268 CNS) was over 10 µM. It also gave a TGI (UACC-257 melanoma) of over 100 µM, a TGI (786-0 renal) of over 100 µM and a TGI (HCC-2998 colon) of 33.9 µM. It also gave a TGI (EKVX NSCLC) of over 100 µM, a TGI (XF 498 CNS) of 40.6 µM and a TGI (IGROV1 ovarian) of over 10 µM. For the same compound, the TGI (MOLT-4 leukemia) was over 100 µM, the TGI (K-562 leukemia) was over 100 µM and the TGI (SK-MEL-5 melanoma) was 32.8 µM. For the same compound, the TGI (NCI-H23 lung) was over 100 µM, the TGI (HCT-116 colon) was 54.3 µM and the TGI (A498 renal) was over 100 µM. The TGI (LXFL 529 NSCLC) was 28.6 µM, the TGI (SNB-78 CNS) was over 100 µM and the TGI (OVCAR-8 ovarian) was over 100 µM. For the same compound, the TGI (DLD-1 colon) was over 100 µM, the TGI (TK-10 renal) was over 100 µM and the TGI (KM20L2 colon) was over 100 µM. The TGI (CCRF-CEM leukemia) was 78.2 µM, the TGI (OVCAR-4 ovarian) was over 100 µM and the TGI (KM12 colon) was over 100 µM. It also gave a TGI (OVCAR-5 ovarian) of over 100 µM.
`COc1c(C(=O)c2ccc([N+](=O)[O-])cc2)cc(C(C)(C)C)cc1C(C)(C)C` gave a TGI (HOP-18 NSCLC) of over 100 µM, a TGI (HL-60(TB) leukemia) of 47.2 µM and a TGI (M19-MEL melanoma) of over 100 µM. The TGI (A549 NSCLC) was over 100 µM, the TGI (HOP-62 NSCLC) was over 100 µM and the TGI (SNB-19 CNS) was over 100 µM. The TGI (HCT-15 colon) was over 100 µM, the TGI (NCI-H522 lung) was 56.9 µM and the TGI (SN12C renal) was over 100 µM. It also gave a TGI (SR leukemia) of 64.1 µM, a TGI (ACHN renal) of over 100 µM and a TGI (DMS 114 small cell lung) of 73.1 µM. The TGI (SNB-75 CNS) was over 100 µM, the TGI (CAKI-1 renal) was over 100 µM and the TGI (NCI-H460 lung) was over 100 µM. The TGI (SK-MEL-28 melanoma) was 72.8 µM, the TGI (RPMI-8226 leukemia) was 31.7 µM and the TGI (HT29 colon) was 88 µM. It also gave a TGI (SW-620 colon) of over 100 µM, a TGI (U251 CNS) of 50.1 µM and a TGI (SF-539 CNS) of over 100 µM. The TGI (UACC-62 melanoma) was 36.2 µM, the TGI (SK-OV-3 ovarian) was over 100 µM and the TGI (M14 melanoma) was over 100 µM. For the same compound, the TGI (DMS 273 small cell lung) was over 100 µM, the TGI (UO-31 renal) was over 100 µM and the TGI (SK-MEL-2 melanoma) was 30.1 µM. For the same compound, the TGI (SF-295 CNS) was over 100 µM, the TGI (LOX IMVI melanoma) was 27.7 µM and the TGI (MALME-3M melanoma) was over 100 µM. The TGI (SF-268 CNS) was over 100 µM, the TGI (UACC-257 melanoma) was 59.3 µM and the TGI (786-0 renal) was over 100 µM. The TGI (HCC-2998 colon) was 66.9 µM, the TGI (EKVX NSCLC) was over 100 µM and the TGI (XF 498 CNS) was 55.1 µM. It also gave a TGI (IGROV1 ovarian) of over 100 µM, a TGI (MOLT-4 leukemia) of 39.9 µM and a TGI (K-562 leukemia) of over 100 µM. The TGI (SK-MEL-5 melanoma) was 32.1 µM, the TGI (NCI-H23 lung) was over 100 µM and the TGI (HCT-116 colon) was 62.9 µM. The TGI (A498 renal) was over 100 µM, the TGI (LXFL 529 NSCLC) was over 100 µM and the TGI (SNB-78 CNS) was over 100 µM. For the same compound, the TGI (OVCAR-8 ovarian) was over 100 µM, the TGI (DLD-1 colon) was over 100 µM and the TGI (RXF 393 renal) was 62.2 µM. For the same compound, the TGI (TK-10 renal) was over 100 µM, the TGI (KM20L2 colon) was over 100 µM and the TGI (CCRF-CEM leukemia) was 97.5 µM. For the same compound, the TGI (OVCAR-4 ovarian) was over 100 µM, the TGI (KM12 colon) was over 100 µM and the TGI (OVCAR-5 ovarian) was over 100 µM.
